Assay results published in patent publication US20100317731A1, “Hyperhidrosis treatment” (priority 2009, published 2010).

Tests used:
Type in all cases: in vivo, human
[1] = tested on: patients who complained of excessive sweating; experiment: Open label study of 26 patients with excessive sweating treated with topiramate; details: 26 patients (18 females, 8 males), total daily dose 25 mg to 100 mg, subjective assessment and report, all on one or more antidepressant
Protocol: In an open label study of 26 patients (18 females and 8 males) who complained of excessive sweating were treated with topiramate on the basis of off label prescribing. The patients were informed of the off-label nature of the treatment and they were counseled about the potential side effects of topiramate. The total daily dose ranged from 25 mg to 100 mg. Over 95% of patients experienced a significant response based on their subjective assessment and report. Patients were all adults with an age range from 25 yrs to 79 yrs. All the patients were on one or more antidepressant including various SSRI's with or without Bupropion. However, several of the patients had experienced excessive sweating for other reasons and before the use of antidepressants, even though adding the antidepressant exacerbated their underlying hyperhidrosis. Some of the underlying causes included perimenopause/menopause as well as primary or idiopathic hyperhidrosis. some had identified vulnerability from before, only made worse by antidepressants.

[2] = tested on: patients with excessive sweating; experiment: Inventor's data and observations in patients with excessive sweating
Text: Based on data and observations that the inventor has, they have found topiramate (Topamax®) to have the following, previously undiscovered, beneficial pharmacological effects for patients with excessive sweating: The patient population in which the inventor has seen these benefits included both men and women ranging in age from 25 to 79 years. […] Optionally, the topiramate can be taken as a low dose on an as-needed basis to treat these sweating episodes. […] The inventor became convinced that topiramate was effective in the treatment of excessive sweating. They observed the improvement in patients whose sweating was induced by various antidepressant medications. Some experienced such sweating severity that they had to change their bedding at night as well as their night clothes. Others found it too embarrassing in the day time to the extent that it interfered with their work and social life; and some became reluctant to take their required antidepressant.

[3] = tested on: patients with excessive sweating (drug-induced hyperhidrosis); experiment: Clinical examples: single patient case reports of excessive sweating treated with topiramate
[4] = men and women aged 25 to 79 years
[5] = patients with excessive sweating

CC1(C)O[C@@H]2[C@@H](CO[C@@]3(COS(N)(=O)=O)OC(C)(C)O[C@@H]23)O1 [topiramate]
patients who experienced a significant response [1]: Over 95% | effectiveness against drug-induced hyperhidrosis at low dose ([2]; doses as low as 12.5 mg per day in an adult): highly effective | incidence of side effects at low dosage ([2]; low dosage): without significant incidence of those side effects | benefit in the patient population [2, 4]: all benefited | side effects in the patient population [2, 4]: minimal side effects | effect on excessive sweating caused by antidepressants and similar medications [2, 5]: Substantial improvement | effect on excessive sweating caused by primary or idiopathic hyperhidrosis [2, 5]: Substantial improvement | effect on excessive sweating from other miscellaneous causes of hyperhidrosis [2, 5]: Substantial improvement | effect on excessive sweating, idiopathic or drug-induced [2, 5]: Substantial improvement | effectiveness when used on an as needed basis [2, 5]: effective | excessive sweating, patient report ([3]; Example 1, a person, Cymbalta 60 mg daily, retrial of topiramate 25 mg twice daily): much better | excessive sweating, patient report ([3]; Example 1, a person, Cymbalta 80 mg daily, topiramate raised from 50 mg daily to 50 mg twice daily): after initial improvement with the topiramate increase, the excessive sweating has recurred | excessive sweating, patient report ([3]; Example 2, a person, Cymbalta and Wellbutrin XL, topiramate 25 mg daily): much better | adverse effects, patient report ([3]; Example 2, a person, topiramate 25 mg per day): no adverse effects | excessive sweating, patient report ([3]; Example 3, a person, Effexor XR 300 mg daily, topiramate 50 mg daily): much improvement | adverse effects, patient report ([3]; Example 3, a person, topiramate 50 mg daily): no adverse effects | excessive sweating, patient report ([3]; Example 4, a person, Zoloft, topiramate 25 mg twice daily): improved | effectiveness when taken on an as needed basis ([3]; Example 4, a person, Zoloft, topiramate as needed): effective | adverse effects, patient report ([3]; Example 4, a person, topiramate): no adverse effects | excessive sweating, patient report ([3]; Example 5, a person, Wellbutrin XL, Cymbalta, Pristiq, topiramate 50 mg daily): suboptimal improvement | excessive sweating, patient report ([3]; Example 5, a person, topiramate 50 mg twice daily, improvement reported for five months thereafter): satisfactory | excessive perspiration, patient report ([3]; Example 6, a person, Wellbutrin XL and Cymbalta, topiramate 25 mg daily, over eighteen months): satisfactory resolution | adverse effects, patient report ([3]; Example 6, a person, topiramate 25 mg daily, over eighteen months): without any adverse effects | excessive sweating, patient report ([3]; Example 7, a person, Aricept and Cymbalta 30 mg, topiramate 25 mg then 50 mg at bedtime): complete resolution | adverse effects, patient report ([3]; Example 7, a person, topiramate 25 mg then 50 mg at bedtime): no adverse effects
